As usually defined, the GI50 is the concentration giving 50% growth inhibition. The TGI is the concentration at which net growth stops. The low end stands for more potent growth arrest, the high end for less potent growth arrest.

Each structure is given as a SMILES string. Where “and” joins values, the source holds several entries; their conditions need not be identical. Identical values can stand only once.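 Each compound was tested at five concentrations against cells in 96-well plates for 48 hours. Here, GI50 denotes the concentration required for 50% inhibition of growth. The concentration for full growth arrest is given as TGI.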

Assay in all cases: DTP human tumour cell line panel, 48 h
Assay [1] has as its system OVCAR-8 ovarian.
The subject of assay [2] is DU-145 prostate.
The test system of assay [3] is U251 CNS.
The subject of assay [4] is MDA-MB-231 breast.
The test system of assay [5] is HL-60(TB) leukemia.
The test system of assay [6] is UACC-62 melanoma.
The test system of assay [7] is A549 NSCLC.
Assay [8] has as its system NCI-H23 lung.
Assay [9] relates to EKVX NSCLC.
For assay [10], the system named is A498 renal.

For the molecule `O=[N+]([O-])C1C(c2ccccc2)C12c1ccccc1-c1ccccc12` (stereo not drawn), the GI50 in [1] was 0.645 µM; in [2], 0.733 µM; in assay [3] it was 1.03 µM; in assay [4] it was 0.633 µM; in [5] it was 2.12 µM; in [6] it was 0.544 µM. The GI50 was 1.91 µM in assay [7], 2.06 µM in [8], 3.22 µM in assay [9] and 0.316 µM in assay [10]. In addition, the TGI is > 24.3 µM in [1]; 3.66 µM in assay [2]; 14 µM in assay [3]; 13.5 µM in [4]; > 100 µM in [5]; 15.6 µM in [6]. In addition, the TGI in assay [7] was > 100 µM; in assay [8], > 47.2 µM; in assay [9], > 100 µM; in assay [10], 3.83 µM.
Take `COc1ccc(C(=O)/C(Br)=C/C(=O)O)cc1`: the TGI in [1] was 326 µM; in assay [2], 128 µM and 202 µM; in [3], 46.5 µM and 52.1 µM; in [4] it was 84 µM and 115 µM; in assay [5], 95.7 µM and 128 µM; in assay [6], 45.3 µM and 32.3 µM. Also, the TGI is 275 µM and 246 µM in assay [7]; 112 µM and 205 µM in [8]; 181 µM and 115 µM in assay [9]; 192 µM and 77.3 µM in assay [10]. The GI50 in assay [2] was 65.3 µM; in assay [4], 53.7 µM; in assay [5], 19.1 µM; in assay [6], 12.3 µM; in assay [7], 25.2 µM; in [8] it was 21.3 µM. For the same molecule, the GI50 in assay [9] was 28 µM; in assay [10], 58.3 µM.
For `CNC(=O)c1cc(OC2CCC(NC(=O)Nc3ccc(Cl)c(C(F)(F)F)c3)CC2)ccn1` (stereo not drawn), the GI50 is 7.89 µM in assay [1]; 12.8 µM in [2]; 6.81 µM in [3]; 3.23 µM in assay [4]; 11.7 µM in assay [5]; 5.41 µM in assay [6]. Further, the GI50 is 4.53 µM in [7], 4.47 µM in assay [8], 7.46 µM in assay [9] and 8.14 µM in assay [10]. In addition, the TGI in [1] turned out to be 39.6 µM; in assay [2], 32.5 µM; in [3], 23.4 µM; in assay [4], 15.9 µM; in assay [5], 50.2 µM; in assay [6], 19.4 µM. Besides, the TGI in [7] was found to be 26.6 µM; in assay [8] it was 20.4 µM; in [9], 58.7 µM; in assay [10], 22.1 µM.
`C=C1CC2(OC1=O)C(=O)N(CCCCCCCN1C(=O)C3(CC(=C)C(=O)O3)c3ccccc31)c1ccccc12` (stereo not drawn): the GI50 was 1.16 µM in [1]; 2.89 µM in assay [2]; 5.81 µM in [3]; 1.18 µM in [4]; 0.992 µM in assay [5]; 1.27 µM in [6]. The GI50 is 9.16 µM in [7], 3.71 µM in [8], 9.35 µM in [9] and 5.17 µM in assay [10]. In addition, the concentration for total growth inhibition (TGI) in assay [1] is 5.05 µM; in assay [2], 9.49 µM; in assay [3] it was 12.4 µM; in assay [4], 3.49 µM; in assay [5], 3.21 µM; in [6], 4.82 µM. For the same molecule, the TGI was 24.8 µM in [7], 11.6 µM in assay [8], 19.3 µM in assay [9] and 13.1 µM in assay [10].
For the molecule `COc1cccc(C2CC(C)(N3CCCC3)Oc3cc4c(cc32)OCO4)c1O` (stereo not drawn), the TGI in assay [1] is > 73.2 µM; in assay [2], > 96.3 µM; in [3], 77.4 µM; in assay [4] it was 80.5 µM; in assay [5], > 54.2 µM; in assay [6] it was > 90.1 µM. Further, the TGI is > 100 µM in assay [7], 71 µM in [8], > 100 µM in assay [9] and > 100 µM in [10].
Take `COc1ccc(N=C2CSc3nnc(-c4cc(F)c(Cl)cc4Cl)n3N2)cc1`: the GI50 is 2.33 µM in assay [1]; 1.47 µM in assay [2]; 0.497 µM in assay [3]; 1.41 µM in assay [4]; 0.331 µM in assay [5]; 0.576 µM in assay [6]. The GI50 is 1.5 µM in assay [7], 2.24 µM in assay [8], 4.84 µM in [9] and 1.54 µM in [10]. The concentration for total growth inhibition (TGI) in [1] was determined as 10.7 µM; in [2], 3.87 µM; in assay [3] it was 10.8 µM; in assay [4], 12.8 µM; in assay [5], 0.636 µM; in [6], 23.2 µM. In addition, the total growth inhibition concentration (TGI) in assay [7] is 4.42 µM; in [8], 15.9 µM; in [9], 41.7 µM; in assay [10], 13 µM.
On to `O=[N+]([O-])c1ccc(C(c2c[nH]c3ccccc23)c2c[nH]c3ccccc23)cc1`, for which the TGI was determined as 33.2 µM in [1]; 20.6 µM in [2]; 45.3 µM in [3]; 29.3 µM in assay [4]; 49 µM in [5]; 26.5 µM in assay [6]. Also, the TGI in assay [7] came to 41.4 µM; in assay [8], 21.4 µM; in assay [9], 48.2 µM; in assay [10] it was 30.1 µM.

The values above are taken from PubChem BioAssay (NCI).
